A short description of the data set: Solubility in water. In kind it is physicochemical. The settings on record: water at 20° C.

The structures appear in SMILES notation. Where only a bound is given, the exact number is not on record here.

As usually defined, the solubility is the concentration that dissolves in the medium under given conditions.

In the case of `CN/C(=N\[N+](=O)[O-])NCc1cnc(Cl)s1` [compound (II)], the solubility was ≤ 300 µg/mL.
